{
  "source": "paper PMC5656322",
  "about": "“BAK1 is involved in AtRALF1-induced inhibition of root cell expansion” (PLoS Genetics, 2017)",
  "key": {"[1]": {"test_system": "Arabidopsis seedlings, primary root", "assay": "Root growth inhibition assay, liquid medium, 24-well plates", "type": "in vivo, Arabidopsis thaliana", "conditions": "10 μM, 2 days; bak1-1, bak1-3 and bak1-4 mutants", "description": "(A) and (B) Arabidopsis seedlings (2 days old) were treated with 10 μM AtRALF1 or water (H20) for 2 days. The values are the mean ± SD of at least 25 seedlings. Triple asterisks indicate P < 0.01 (Student’s t test); ns, not significant. (C) Four-day-old seedlings were transferred to media containing different concentrations of AtRALF1, and the primary root length was measured after 8 days of treatment. The data represent the mean value ± SD of 30 seedlings. […] Representative Arabidopsis seedlings after 8 days of treatment with AtRALF1 are shown below. Seedlings were arranged on plates after the treatment for imaging. Scale bars, 1 cm. (D) Two-day-old seedlings were treated with 10 μM AtRALF1 or water for 2 days, and root cell length was measured after 2 days of treatment. Cells from the root endodermis in the differentiation zone were measured. The values are the mean ± SD of approximately 150 cells. Triple asterisks indicate P < 0.01 (Student’s t test); ns, not significant.\nAliquots of 1 ml of medium containing seeds were distributed into 24-well plates. The peptides (10 μM) were added after 2 days, and the root length was measured 2 days after treatment. To maximize root growth, the seeds were germinated in vertical plates. […] The root length was measured 8 days after treatment unless stated otherwise. Control plants were grown under identical conditions in a peptide-free medium. Quantitative data were obtained as previously described. The experiments were repeated at least 3 times using independent biological replicates with similar results. The data from one representative experiment are shown. For cell length measurements, AtRALF1 peptide (10 μM) was added after 2 days of germination, and the cell length was measured after 2 days of treatment. The cell wall was stained with a 1 mg ml^-1 propidium iodide solution (Sigma) in the dark for 15 min and washed twice with water. Cells of the endodermis of the root differentiation zone were imaged and measured using confocal microscopy (Olympus FV1000). Approximately 30 plants from each genetic background and at least 5 cells per root were measured. The wavelengths for excitation and emission were 555 and 655 nm, respectively. Image processing was completed using the Olympus FluoView software.\nArabidopsis seedlings (2-days-old) were treated with 10 μM AtRALF1 or water (H20) for 2 days. The values are the mean ± SD of at least 25 seedlings. Triple asterisks indicate P < 0.01 (Student’s t test); ns, not significant. (PDF) Click here for additional data file.\nSupplementary file pgen.1007053.s002.pdf: S2 Fig Loss-of-function bak1 mutants are sensitive to the inhibitory activity of AtRALF23/34 on root growth. Arabidopsis seedlings (2-day-old) were treated with 10 μM RALF1(9–49), RALF1(I6A), AtRALF1, AtRALF23 and AtRALF34 or water (H20) for 2 days. The values are the mean ± SD of at least 20 seedlings. […] (PDF) Click here for additional data file."}, "[2]": {"test_system": "Arabidopsis seedlings, primary root", "conditions": "wild-type Arabidopsis; ref [5]; cited from earlier work", "description": "To better understand the role of AtRALF1 and BRs in regulating cell expansion, we exposed different mutants and transgenic Arabidopsis plants with altered BR signaling pathways to the peptide hormone AtRALF1 at concentrations that inhibit root growth. Loss-of-function mutants (bri1-301, bsk3-2 and bak1-4), gain-of-function mutants (sud1, bes1-D and bzr1-D) and two overexpressor lines (BRI OX and DWF4 OX) were used in the root growth assays in the presence or absence of 10 μM AtRALF1 (Fig 1A)."}, "[3]": {"test_system": "cell suspensions", "conditions": "ref [5]; cited from earlier work"}, "[4]": {"test_system": "cytosolic Ca^2+ in Arabidopsis seedlings", "assay": "Ca^2+ mobilization assay (apoaequorin luminescence)", "type": "in vivo, Arabidopsis thaliana", "conditions": "acriAtRALF1 vs unlabeled AtRALF1, apoaequorin seedlings (S17A Fig)", "description": "The cytoplasmic Ca^2+ assay was performed in Arabidopsis seedlings as described previously. Changes in Ca^2+ levels were measured using an Arabidopsis line homozygous for the single insertion of a transgene encoding a cytoplasmically expressed apoaequorin protein driven by the constitutive promoter 35S [53], here denoted Wt-aeq. Wt-aeq plants were crossed with bak1-3 mutants, and T3 generation plants overexpressing apoaequorin and containing a T-DNA insertion in the BAK1 gene, named bak1-3-aeq, were selected and evaluated using semi-quantitative RT-PCR with specific primers (S1 Table). Arabidopsis seedlings were grown in plates for 4 days. A single seedling was transferred into each well of a 96-well white microplate (Thermo Labsystems) containing 200 μl of medium supplemented with […] coelenterazine cp (Biotium) and incubated in the dark at 24 °C for 16 h. Each well containing a single seedling received recombinant AtRALF1 or acridinium-labeled AtRALF1 at a final concentration of 5, 10 or 100 nM as indicated. The resulting luminescence emission was monitored using a microplate reader (Biotec ELx 800) and 20 time-points for approximately 160 s. The experiments were repeated at least three times using independent biological replicates. The data shown are from one representative experiment."}, "[5]": {"test_system": "microsomal fractions from the roots of Arabidopsis", "assay": "Binding assay with acridinium-labeled AtRALF1, microsomal fractions", "set-up": "species or system Arabidopsis thaliana", "description": "(§1) (A) Whole seedlings (5 days old) were treated for 15 min with acriAtRALF1 (acriR1), acriR1 and an excess of unlabeled AtRALF34 (R34), RALF1(9–49) [(R-9-49)], or AtRALF1 (R1), as indicated. The values are the mean ± SD of two measurements (5 seedlings each). (B) Microsomal fractions from wild-type and bak1 mutants were incubated for 15 min with acriAtRALF1 (acriR1), with acriR1 and an excess of unlabeled RALF1(9–49) [(R-9-49)], or with AtRALF1 (R1), as indicated. The values are the mean ± SD of two measurements. The proportions of labeled: unlabeled proteins are shown in parentheses. Single and triple asterisks indicate P < 0.1 and P < 0.01 (Student’s t test).\n(§2) Arabidopsis seedlings were grown for 5 days on vertical plates. Roots were homogenized in extraction buffer [300 mM sucrose, 100 mM Tris-HCl pH 7.5, 25 mM EDTA, 25 mM NaF, 1 mM Na2MoO4, 1 mM PMSF and protease inhibitor cocktail (Roche), adjusted to pH 6.2], and the homogenate was spun at 2,000 x g for 10 min at 4 °C. The supernatant was recovered and centrifuged at 100,000 x g for 50 min at 4 °C to precipitate the microsomal pellet. The pellet was resuspended in the extraction buffer plus 0.5% Triton-X. Seedlings or microsomal fractions were placed in 200 μl of medium and incubated with 7 nM acridinium-labeled peptide (acriAtRALF1 or acriAtRALF34) and different concentrations of AtRALF1, AtRALF34 or RALF1(9–49) for 15–20 min at 4 °C on a shaker. After incubation, the seedlings or microsomal fractions were washed three times with the same medium. Unless indicated otherwise, five entire seedlings and approximately 10 ng of microsomal fractions were used per treatment. The resulting luminescence emissions from the acridinium were measured using a microplate reader (Biotec ELx 800) at 2 s after injecting 50 μl of a solution containing 20 mM H2O2 in 0.1 M NaOH. These experiments were repeated at least three times using independent biological replicates. Duplicates were used for each concentration or treatment. The data shown are from one representative experiment."}, "[6]": {"test_system": "intact Arabidopsis seedlings", "assay": "Binding assay with acridinium-labeled AtRALF1, intact seedlings", "set-up": "species or system Arabidopsis thaliana", "conditions": "for reduction of total acriAtRALF1 binding vs wild-type: 7 nM, 4 °C", "description": "as §1, §2\nSupplementary file pgen.1007053.s017.pdf: S17 Fig Analyses of acridinium-labeled AtRALF1 (acriAtRALF1) and binding of acriAtRALF1 in bak1-4 and fer4 mutants. (A) The Ca^2+ mobilization assay comparing the acriAtRALF1 activity with the AtRALF1 peptide. A total of 20 time-points per treatment were measured over 160 sec and summed. The results are the means ± SD of two measurements. (B) acriAtRALF1 binding in whole seedlings and only in roots of Arabidopsis. The roots were excised just before measurements. Ctr, seedlings treated with unlabeled AtRALF1. (C) Whole seedlings (5 days old) were treated for 20 min with acriAtRALF1 (acriR1), acriR1 and an excess of unlabeled AtRALF1 (R1), as indicated. The values are the mean ± SD of three measurements (5 seedlings each). The proportions of labeled: unlabeled proteins are shown in parentheses. Triple asterisks indicates P < 0.001 (Student’s t test). (PDF) Click here for additional data file.\nSupplementary file pgen.1007053.s018.pdf: S18 Fig Binding of acridinium-labeled AtRALF1 and AtRALF34 to intact Arabidopsis seedlings. (A) bak7 seedlings (5 days old) were treated for 15 min with acriAtRALF1 (acriR1), acriR1 and an excess of unlabeled AtRALF1 (R1), as indicated. (B) bak1 seedlings (5 days old) were treated for 15 min with acriAtRALF34 (acriR34), acriR34 and an excess of unlabeled AtRALF34 (R34) or AtRALF1 (R1), as indicated. The proportions of labeled: unlabeled proteins are shown in parentheses. The values are the mean ± SD of two measurements (5 seedlings each). (PDF) Click here for additional data file."}},
  "note": "Like-named read-outs stand apart in the source and are kept apart here. Where no end group is shown, it is not given here. acridinium ester = acridinium ester label conjugated to the N-terminus of the peptide",
  "data": [
    {"substance": "AtRALF23: Arabidopsis RALF isoform (ATRRYISYGALRRNTIPCSRRGASYYNCRRGAQANPYSRGCSAITRCRRS; ends and bridges not checked; cysteine pairing not given here; UniProt Q9LUS7 89-138, looked up) [reference compound]", "values": [
      {"measurement": "primary root growth inhibition", "setting": "[1]", "result": "inhibited the primary root growth"},
      {"measurement": "primary root growth inhibition", "setting": "[2]", "result": "inhibits the primary root growth of wild-type Arabidopsis plants"},
      {"measurement": "alkalinization of the extracellular medium", "setting": "[3]", "result": "alkalinizes the extracellular medium of cell suspensions"}
    ]},
    {"substance": "acriAtRALF1: acridinium-labeled AtRALF1; acridinium ester conjugated to the N-terminal of the peptide ({acridinium ester}-ATTKYISYQSLKRNSVPCSRRGASYYNCQNGAQANPYSRGCSKIARCRS; ends and bridges not checked)", "values": [
      {"measurement": "increase in cytoplasmic Ca^2+", "setting": "[4]", "result": "induced an increase in cytoplasmic Ca^2+"},
      {"measurement": "nature of acriAtRALF1 binding", "setting": "[5]; microsomal fractions", "result": "specific and saturable"},
      {"measurement": "reduction of total acriAtRALF1 binding vs wild-type", "setting": "[5]; microsomal fractions of bak1 mutants, 7 nM, 4 °C", "result": "approximately 15%"},
      {"measurement": "reduction of total acriAtRALF1 binding vs wild-type", "setting": "[6]; bak1-1 seedlings, 15 min", "result": 30, "unit": "%"},
      {"measurement": "reduction of total acriAtRALF1 binding vs wild-type", "setting": "[6]; bak1-3 seedlings, 15 min", "result": 29, "unit": "%"},
      {"measurement": "reduction of total acriAtRALF1 binding vs wild-type", "setting": "[6]; bak1-4 seedlings, 15 min", "result": 31, "unit": "%"},
      {"measurement": "reduction of total acriAtRALF1 binding, wild-type vs bak7", "setting": "[6]; bak7 mutants, 15 min", "result": "no differences in the reduction of total binding between wild-type and bak7 mutants were observed"},
      {"measurement": "reduction of total acriAtRALF1 binding", "setting": "[6]; fer4 mutants, 20 min (S17C Fig)", "result": "approximately 48%"},
      {"measurement": "source of acriAtRALF1 chemiluminescent signal", "setting": "[6]; whole seedlings vs only roots (S17B Fig)", "result": "the roots were the only source of the chemiluminescent signal"}
    ]}
  ]
}
